The source of these data is PubChem BioAssay (NCI).

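Following 48 hours of exposure in 96-well plates, responses at five concentrations were used to interpolate endpoints linearly. At the GI50, growth is halved. TGI: concentration producing complete growth inhibition.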

Some test systems named below: A498 renal; ACHN renal; COLO 205 colon; DU-145 prostate; HCT-116 colon; HL-60(TB) leukemia; MALME-3M melanoma; RXF 393 renal; SK-MEL-28 melanoma; TK-10 renal.
What all share (assay): inhibition of tumour cell growth, NCI panel, 48 h

On to `COc1ccccc1Nc1ncc(-c2ccccc2)o1`, for which the GI50 in the assay with A498 renal, in the assay on ACHN renal, in the assay on COLO 205 colon, with DU-145 prostate, with HCT-116 colon and with HL-60(TB) leukemia was above 25 µM each time. Moreover, the GI50 with MALME-3M melanoma, in the assay on RXF 393 renal, in the assay on SK-MEL-28 melanoma and in the assay with TK-10 renal was above 25 µM throughout. Besides, the TGI in the assay on A498 renal, with ACHN renal, with COLO 205 colon, with DU-145 prostate, in the assay with HCT-116 colon and in the assay with HL-60(TB) leukemia was above 25 µM throughout. The TGI in the assay with MALME-3M melanoma, in the assay on RXF 393 renal, with SK-MEL-28 melanoma and in the assay with TK-10 renal was above 25 µM in each case.
In the case of `COC(=O)c1ccc2c(c1)/C(=C\c1cc(Br)c(O)c(Br)c1)C(=O)N2`, the GI50 in the assay on A498 renal was 3.48 µM; in the assay with ACHN renal, 6.27 µM; in the assay on COLO 205 colon, 6.8 µM; in the assay with DU-145 prostate it was 7.15 µM; in the assay on HCT-116 colon, 8.29 µM; in the assay on HL-60(TB) leukemia, 4.97 µM. The GI50 with MALME-3M melanoma is 2.08 µM; with RXF 393 renal, 6.06 µM; in the assay on SK-MEL-28 melanoma, 3.96 µM; with TK-10 renal, 6.79 µM. For the same compound, the TGI in the assay with A498 renal is 11 µM; in the assay on ACHN renal it was above 25 µM; in the assay on COLO 205 colon, above 25 µM; in the assay with DU-145 prostate it was above 25 µM; with HCT-116 colon, above 25 µM; with HL-60(TB) leukemia it was 14.6 µM. Besides, the TGI in the assay on MALME-3M melanoma is 13.8 µM; in the assay with RXF 393 renal, above 21.2 µM; with SK-MEL-28 melanoma, above 25 µM; with TK-10 renal, above 23.3 µM.
Consider `COc1cc(/C=C/C(=O)c2cccc(-n3cc(-c4ccc(Cl)cc4)[nH]c3=O)c2)ccc1O`, for which the GI50 with A498 renal was 5.78 µM; in the assay with ACHN renal it was 2.19 µM; in the assay with COLO 205 colon, 4.88 µM; in the assay on DU-145 prostate it was 2.6 µM; with HCT-116 colon, 1.57 µM; in the assay on HL-60(TB) leukemia, 4.56 µM. Further, the GI50 was 5.99 µM in the assay on MALME-3M melanoma, 2.99 µM with RXF 393 renal, 2.07 µM in the assay with SK-MEL-28 melanoma and 6.6 µM with TK-10 renal. Also, the TGI in the assay with A498 renal was 16.7 µM; in the assay with ACHN renal, 4.95 µM; with COLO 205 colon it was 16 µM; in the assay with DU-145 prostate it was 7.55 µM; with HCT-116 colon, 3.82 µM; in the assay with HL-60(TB) leukemia, above 24.3 µM. Also, the TGI with MALME-3M melanoma was 22.2 µM; in the assay on RXF 393 renal, 9.13 µM; with SK-MEL-28 melanoma, 4.18 µM; in the assay with TK-10 renal, above 65.5 µM.
Regarding `O=[N+]([O-])c1ccc(CI)cc1`, the GI50 with A498 renal is 2.29 µM; with ACHN renal, 1.96 µM; in the assay with COLO 205 colon, 2 µM; with DU-145 prostate, 2.78 µM; in the assay with HCT-116 colon, 0.9 µM; in the assay on HL-60(TB) leukemia, 2.24 µM. For the same compound, the GI50 was 2.15 µM in the assay with MALME-3M melanoma, 2.44 µM in the assay with RXF 393 renal, 5.15 µM with SK-MEL-28 melanoma and 1.85 µM in the assay with TK-10 renal. The TGI in the assay with A498 renal stood at 9.56 µM; in the assay on ACHN renal it was 4.12 µM; in the assay on COLO 205 colon it was 3.76 µM; in the assay on DU-145 prostate it was 7.08 µM; in the assay with HCT-116 colon, 2.95 µM; in the assay on HL-60(TB) leukemia, 5.22 µM. Further, the TGI is 4.63 µM with MALME-3M melanoma, 8.74 µM with RXF 393 renal, 18.2 µM in the assay on SK-MEL-28 melanoma and 3.32 µM in the assay with TK-10 renal.
For `CC12CCC3c4ccc(O)cc4CCC3C1C/C(=N\O)C2O` (stereo not given), the TGI with A498 renal, in the assay with ACHN renal, with COLO 205 colon, in the assay with DU-145 prostate, with HCT-116 colon and in the assay on HL-60(TB) leukemia was above 100 µM each time. Besides, the TGI in the assay with MALME-3M melanoma, in the assay with RXF 393 renal, with SK-MEL-28 melanoma and in the assay with TK-10 renal was above 100 µM each time.
As to `CS(=O)(=O)Nc1cc(-c2ccc3ncnc(Nc4c(Cl)ccc5c4OCO5)c3c2)cnc1Cl`, the GI50 was below 0.0135 µM in the assay with A498 renal; 0.186 µM in the assay with ACHN renal; 0.263 µM in the assay on COLO 205 colon; 0.24 µM with DU-145 prostate; 0.269 µM in the assay on HCT-116 colon; 0.159 µM in the assay on HL-60(TB) leukemia. In addition, the GI50 in the assay with MALME-3M melanoma was 0.0525 µM; with RXF 393 renal it was 0.143 µM; in the assay on SK-MEL-28 melanoma, 0.12 µM; in the assay with TK-10 renal, 0.047 µM. The TGI in the assay with A498 renal is 0.127 µM; with ACHN renal it was above 48.1 µM; in the assay with COLO 205 colon, 1.35 µM; in the assay with DU-145 prostate, 5.01 µM; in the assay on HCT-116 colon, 1.97 µM; in the assay on HL-60(TB) leukemia, 0.92 µM. The TGI worked out at 0.515 µM in the assay with MALME-3M melanoma, 0.575 µM in the assay on RXF 393 renal, 1.03 µM in the assay with SK-MEL-28 melanoma and 0.888 µM in the assay with TK-10 renal.
On to `CN1CC[C@@H](c2c(O)cc(O)c3c(=O)cc(-c4ccc(C(F)(F)F)cc4Cl)oc23)[C@@H]1CO`, for which the GI50 is 14.2 µM in the assay with A498 renal; 10.6 µM with ACHN renal; 15.1 µM with COLO 205 colon; 16.5 µM in the assay with DU-145 prostate; 11.4 µM in the assay with HCT-116 colon; 8.37 µM in the assay on HL-60(TB) leukemia. Further, the GI50 with MALME-3M melanoma was 18.4 µM; in the assay on RXF 393 renal, 10.9 µM; with SK-MEL-28 melanoma, 14.4 µM; in the assay on TK-10 renal it was 14.7 µM. The TGI was 27.6 µM in the assay on A498 renal; 38 µM in the assay on ACHN renal; 32.9 µM with COLO 205 colon; 37.7 µM with DU-145 prostate; 24.2 µM in the assay with HCT-116 colon; 33.6 µM with HL-60(TB) leukemia. The TGI stood at 36.9 µM in the assay with MALME-3M melanoma, 24.8 µM with RXF 393 renal, 32.2 µM in the assay on SK-MEL-28 melanoma and 43.5 µM in the assay with TK-10 renal.
In the case of `C=COC(=O)N[C@H]1CCc2cc(OC)c(OC)c(OC)c2-c2ccc(SC)c(=O)cc21`, the TGI was 0.395 µM in the assay with A498 renal; 64.9 µM with ACHN renal; below 0.01 µM in the assay on COLO 205 colon; below 0.01 µM with DU-145 prostate; 0.74 µM in the assay on HCT-116 colon; below 0.01 µM with HL-60(TB) leukemia. Besides, the TGI with MALME-3M melanoma was above 100 µM; with RXF 393 renal, 3.14 µM; in the assay on SK-MEL-28 melanoma it was above 96.3 µM; in the assay with TK-10 renal, 86.5 µM.
